# Assays:
# [1] = test system: BM-MNC from non-(del)5q MDS patients; assay: Apoptosis after dual Cdc25C/PP2Acα shRNA knockdown plus lenalidomide, BM-MNC; assay type: cell-based, human; conditions: dual knockdown 48 hours, then lenalidomide 5 μM for 48 hours, p<0.001 vs shRNA control plus lenalidomide, five patients
# Procedure: (§1) FIGS. 2A-2B are images of an RT-PCR gel (FIG. 2A) and Western blot (FIG. 2B) to detect PP2A and Cdc25C gene (FIG. 2A) and protein (FIG. 2B) expression in U937 cells infected with mock (lane 1), lentiviral vectors encoding non-target shRNA control (lane 2), shCdc25C (lane 3), shPP2Acα (lane 4), shCdc25C and PP2Acα (lane 5) and negative for PCR (lane 6) and harvested 48 hours after incubation. FIGS. 2C and 2D are bar graphs showing P2Acα and Cdc25c mRNA expression (copies/GAPDH) in U937 cells infected with mock, lentiviral vectors encoding non-target shRNA control, shCdc25C, shPP2Acα, or shCdc25C and PP2Acα. FIGS. 2E-2F are bar graphs showing apoptosis (%) in U937 cells (E) or BM-MNC (F) that were infected with lentiviral vectors containing various constructs as indicated for 48 hours and then treated with or without lenalidomide at the concentration of […] for additional 48 hours before being analyzed for apoptosis. […]
# (§2) U937 cells were infected with mock (lane 1), lentiviral vectors encoding non-target shRNA control (lane 2), shCdc25C (lane 3), shPP2Acα (lane 4), shCdc25C and PP2Acα (lane 5) and negative for PCR (lane 6). […] The U937 cells (FIG. 2C) or BM-MNC (FIG. 2D) were infected with lentiviral vectors containing various constructs as indicated for 48 hours and then treated with or without lenalidomide at the concentration of 5 μM for additional 48 hours before analyzed for apoptosis. […]
# del5q MDS = conditions: patients with del5q MDS; cited from earlier work
# U937 cells = assay: Apoptosis after dual Cdc25C/PP2Acα shRNA knockdown plus lenalidomide, U937 cells; assay type: cell-based; conditions: dual Cdc25C and PP2Acα shRNA knockdown 48 hours, then lenalidomide 5 μM for 48 hours
# Procedure: as §1, §2
smiles,measurement,setting,value
"Nc1cccc2c1CN(C1CCC(=O)NC1=O)C2=O (racemic) [lenalidomide, (RS)-3-(4-Amino-1-oxo 1,3-dihydro-2H-isoindol-2-yl)piperidine-2,6-dione]",apoptotic response to lenalidomide,[1],increases apoptotic response
same,median duration of response,del5q MDS,2.5 years
same,apoptotic response to lenalidomide,U937 cells,increases apoptotic response

# From patent US10682417B2, “Targeted sensitization of non-del(5q) malignant cells” (H. LEE MOFFITT CANCER CENTER AND RESEARCH INSTITUTE, INC., priority 2013, dated 2020)
